Laboratory results: publication PMC4099323, “Inhibition of Catalase by Tea Catechins in Free and Cellular State: A Biophysical Approach” (PLoS ONE, 2014)

Key:
[1] = target: T1, Catalase (from bovine liver) (Bos taurus, UniProt P00432); assay: Circular dichroism: catechin-induced conformational change in catalase; settings: catalase 1 µM, ligands 3 µM each, 25°C
T1 construct: Catalase (from bovine liver); purchased Sigma-Aldrich, St. Louis, MO, USA; host or cells: bovine liver
T1 sequence (P00432 2-527 limits assumed): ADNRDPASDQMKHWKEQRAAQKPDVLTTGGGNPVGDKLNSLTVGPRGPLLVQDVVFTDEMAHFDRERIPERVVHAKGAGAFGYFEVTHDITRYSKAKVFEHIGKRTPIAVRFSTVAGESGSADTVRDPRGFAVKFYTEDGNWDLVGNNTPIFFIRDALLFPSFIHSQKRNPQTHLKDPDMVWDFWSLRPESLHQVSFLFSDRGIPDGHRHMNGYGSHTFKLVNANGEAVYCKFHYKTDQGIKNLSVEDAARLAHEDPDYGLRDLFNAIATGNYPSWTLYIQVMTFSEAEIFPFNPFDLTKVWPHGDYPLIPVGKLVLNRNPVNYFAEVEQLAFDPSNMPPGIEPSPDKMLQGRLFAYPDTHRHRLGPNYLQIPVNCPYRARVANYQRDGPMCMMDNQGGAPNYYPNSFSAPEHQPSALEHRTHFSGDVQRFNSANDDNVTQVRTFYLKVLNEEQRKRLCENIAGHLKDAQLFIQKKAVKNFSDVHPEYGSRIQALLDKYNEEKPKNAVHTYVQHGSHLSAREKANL
Protocol: All the CD experiments were carried out on a Jasco-815 automatic spectropolarimeter (Jasco International Co., Ltd. Hachioji, Japan) equipped with a peltier cuvette holder and temperature controller PFD425 L/15. The catalase concentration and path length of the cuvette used were 1 µM and 0.1 cm, respectively. The instrument parameters were set at scanning speed of 50 nm/min, bandwidth of 1.0 nm and sensitivity of 100 milli degree. The molar ellipticity values are expressed in terms of mean residue molar ellipticity, in units of deg. cm^2 dmol^−1.
CD allows investigation of the conformational changes that occur in a protein upon ligand binding. The CD spectra of catalase at pH 7.4 in the absence and in the presence of EGC, EC, ECG, EGCG, and 3-AT at 25°C are represented in Figure 5 (a – f). […] The negative band at 208 and 220 nm decreased in intensity with the addition of various catechins, which is indicative of the loss of α-helicity upon interaction. […] From the CD spectra, the effect of catechins on the secondary structure of catalase is in the following order: 3-AT>EGCG>ECG>EC>EGC.

G3BP1 = settings: read-out: dissociation constant (K d); cited from earlier work
[2] = tested on: cyclin dependent kinase 2 (CDK2); settings: MCF7 breast cancer cell lines, 30 µM; cited from earlier work
[3] = target: T1, Catalase (from bovine liver); assay: Inhibition of pure catalase activity (cell free), H2O2 decay at 240 nm; type: biochemical
Protocol: Absorption spectrophotometer (Varian, CARY 100 Bio, USA) was used to determine pure catalase activity (cell free). Briefly, 900 µl of H2O2 (0.036%) was taken in quartz cell of 1 cm path length and its absorbance was recorded at 240 nm. To the solution, 100 µl of catalase (50 U/ml) was added and the decrease in absorbance was recorded at 10 s interval. This experiment was performed in presence 50 µM each of four catechins and 3-AT separately to evaluate the inhibitory effect of catechins on catalase activity, after 1 h incubation.
On addition of catechins, a decrease in rate of H2O2 degradation i.e. a decrease in pure catalase activity was observed which is represented in Figure 6A. Catechins with galloyl moiety (ECG and EGCG) reduced catalase activity more than its non-gallated counterparts i.e. EGC and EC. However, Inhibition by EGCG is the closest to inhibition by known catalase inhibitor 3-AT.

[4] = target: T1, Catalase (from bovine liver); assay: Fluorimetric titration: quenching of catalase fluorescence by catechins; type: binding
Protocol: Fluorescence spectra were recorded using a Perkin Elmer fluorescence spectrophotometer (LS-55) equipped with 150 W Xenon flash lamp and using fluorescence-free quartz cell of 1 cm path length. The widths of excitation and emission slits were set to 5 nm, and scan speed (100 nm/min), excitation voltage were kept constant for each data set. Quantitative analysis of the potential interaction between catechins and catalase was performed by the fluorimetric titration technique. Briefly, solution of catalase (5×10^−7 M, as calculated using molar extinction coefficient of 3.24×10^5 M^−1 s^−1 at 405 nm for catalase) in 50 mM phosphate buffer of pH 7.4 was titrated in cuvette by successive additions of individual catechin solution aliquots from a stock of 5×10^−7 M. Fluorescence emission spectra were recorded in the wavelength range of 290–450 nm upon excitation at 280 nm when catalase samples were titrated with catechins. All experiments were carried out at room temperature. Fluorescence intensity was measured at 340 nm of protein emission spectra. Fluorescence spectra of individual catechins in buffer were recorded as blanks under the same experimental conditions and subtracted from the corresponding sample to correct the fluorescence background.
The binding constants and the number of binding sites involved were calculated according to the relation: log (F0–F)/F = log K+n log [Q], where K is the binding constant and n is the number of binding sites, F0 is the fluorescence intensity of free catalase, F is the consecutive fluorescence on addition of catechins, and [Q] is the concentration of the quencher (here catechins). A plot of log (F0– F)/F and log [Q] was used to determine the values of K and n from the intercept and the slope respectively (Figure 3 A–D).

CDK4 = settings: MCF7 breast cancer cell lines, 30 µM; cited from earlier work
Bcl-2 proteins = settings: read-out: inhibition constant (K i); cited from earlier work
[5] = target: human dihydrofolate reductase (DHFR); parameters: method as in PMID 20054477; settings: fluorescence quenching; cited from earlier work
[6] = tested on: phosphorylation of JNK, JUN, MEK1, MEK2; settings: JB6 epidermal cell lines, 5–20 µM; cited from earlier work
vimentin = settings: read-out: dissociation constant (K d); cited from earlier work

O=C(O[C@@H]1Cc2c(O)cc(O)cc2O[C@@H]1c1cc(O)c(O)c(O)c1)c1cc(O)c(O)c(O)c1 [EGCG, (−)-epigallocatechin gallate]
order of effect on the secondary structure of catalase (loss of α-helicity) [1]: 3-AT>EGCG>ECG>EC>EGC | Kd (G3BP1): 400 nM | inhibition of CDK2 [2]: inhibited | y-intercept 1/V0 of inhibited catalase ([3]; Lineweaver-Burk plot, uninhibited 0.0081): 0.3635 min/µM | type of inhibition (Lineweaver-Burk plot) ([3]; catalase – H2O2 reaction): uncompetitive | order of inhibition of catalase activity ([3]; pure catalase, 50 µM each, 1 h incubation): 3-AT>EGCG>ECG>EC>EGC | number of binding sites n ([4]; double logarithmic plot, 25°C): single binding site | binding constant K with catalase (fluorimetric) ([4]; double logarithmic plot, 25°C, pH 7.4, λex 280 nm): 2.27e+06 M⁻¹ | Kd ([4]; from the fluorimetric binding constant, read-out: K d to catalase): 440 nM | inhibition of CDK4 (CDK4): inhibited | Ki (Bcl-2 proteins): 330 to 490 nM | Kd [5]: 900 nM | inhibition of phosphorylation of JNK, JUN, MEK1, MEK2 [6]: inhibited | Kd (vimentin): 3.3 nM
